# Measurements: patent US9504729B2, “Antiangiogenic small molecules and methods of use” (The United States of America, as represented by the …, priority 2009, dated 2016)
# System: angiogenesis genes in dermal microvascular endothelial cells
# Assay: Real time RT-PCR of angiogenesis gene expression during endothelial tube formation
# Assay type: cell-based
# Conditions: 1 μM SM, 24 hours
# Protocol: For gene expression studies, three independent experiments were run for each SM tested. 90.000 cells/well (6 wells/treatment) of dermal microvascular endothelial cells (Lonza, Walkersville, Md.) were seeded on polymerized GELTREX™ gel matrix (Invitrogen, Carlsbad, Calif.) in 24 well plates. Wells were immediately treated with the same volume of 1 μM SM or PBS. After 24 hours incubation at 37° C. and 5% CO2, cells were extracted using Cell Recovery Solution (BD Biosciences, San Jose, Calif., Cat. #354253). Total RNA was extracted with the RNeasy Mini Kit (Qiagen, Valencia, Calif., Cat. #74104), and retrotranscribed using […]® First-Strand reverse transcriptase (Invitrogen, Carlsbad, Calif., Cat. #11904-018). The real time PCR reactions were performed in an Opticon 2 cycler (MJ Research, Waltham, Mass.). Amplification was performed in a final volume of 25 μl, containing 2 μl cDNA (1:10 dilution from the reversed transcribed reaction) and 2 μl of primer mixture (10 μM each of forward and reverse primers). Samples were amplified as follows: after initial denaturation at 95 C for 2 minutes, reactions were run for 46 cycles at 95° C. for 30 seconds, 60° C. for 30 seconds, and 72° C. for 45 seconds. Fluorescence was measured in every cycle and a melting curve was run after the PCR by increasing temperature from 50 to 96° C. (in 0.5° C. increments). A defined single peak was obtained for all amplicons, thus confirming the specificity of the amplification.
# The genes that were monitored were selected based on their relevance to the angiogenesis process. All experiments were done in triplicate. The results are shown in the volcano plots of FIG. 17. Log 2 fold-change is presented in the X-axis and log 10 P value in the Y-axis.
structure (smiles),measurement,setting,value
COc1cc2cc(c1Cl)N(C)C(=O)CC(OC(=O)C(C)C)C1(C)OC1C(C)C1CC(O)(NC(=O)O1)C(OC)/C=C/C=C(\C)C2 (centres unmarked) [compound 292222],Log2 fold-change of gene expression: 1839,,−0.1
same,Log2 fold-change of gene expression: 4247,,0.5
same,Log2 fold-change of gene expression: 5569,,1.5
same,Log2 fold-change of gene expression: 8131,,0.1
same,Log2 fold-change of gene expression: 9569,,0.2
same,Log2 fold-change of gene expression: 10988,,1.0
same,Log2 fold-change of gene expression: 23001,,−0.8
same,Log2 fold-change of gene expression: 55332,,2.4
same,Log2 fold-change of gene expression: 57722,,0.0
same,Log2 fold-change of gene expression: 58488,,1.0
same,Log2 fold-change of gene expression: 90780,,0.1
same,Log2 fold-change of gene expression: 134265,,−1.3
same,Log2 fold-change of gene expression: AKT1,,0.7
same,Log2 fold-change of gene expression: ANGPT1,,0.9
same,Log2 fold-change of gene expression: ANGPT2,,−1.3
same,Log2 fold-change of gene expression: ANGPTL3,,0.6
same,Log2 fold-change of gene expression: ANGPTL4,,1.3
same,Log2 fold-change of gene expression: ANPEP,,−0.6
same,Log2 fold-change of gene expression: ANTXR1,,−0.2
same,Log2 fold-change of gene expression: APOE,,−2.2
same,Log2 fold-change of gene expression: ARHGEF1,,−0.9
same,Log2 fold-change of gene expression: Acvrl1,,0.0
same,Log2 fold-change of gene expression: Adcy4,,−0.4
same,Log2 fold-change of gene expression: BAL1,,0.2
same,Log2 fold-change of gene expression: BMP1,,0.4
same,Log2 fold-change of gene expression: C1orf54,,−0.1
same,Log2 fold-change of gene expression: CALD1,,0.6
same,Log2 fold-change of gene expression: CCL2,,0.9
same,Log2 fold-change of gene expression: CCL11,,0.2
same,Log2 fold-change of gene expression: CD248,,1.3
same,Log2 fold-change of gene expression: CDH5,,−0.1
same,Log2 fold-change of gene expression: CENTD3,,−0.5
same,Log2 fold-change of gene expression: CLIC1,,6.6
same,Log2 fold-change of gene expression: COL4A3,,2.0
same,Log2 fold-change of gene expression: COL18A1,,1.2
same,Log2 fold-change of gene expression: COMT,,−0.2
same,Log2 fold-change of gene expression: CST4,,0.8
same,Log2 fold-change of gene expression: CTTNBP2NL,,0.2
same,Log2 fold-change of gene expression: CXCL3,,5.0
same,Log2 fold-change of gene expression: CXCL5,,3.4
same,Log2 fold-change of gene expression: CXCL6,,0.4
same,Log2 fold-change of gene expression: CXCL9,,0.4
same,Log2 fold-change of gene expression: CXCL10,,0.8
same,Log2 fold-change of gene expression: Calcr1,,−1.1
same,Log2 fold-change of gene expression: Caskin2,,−6.7
same,Log2 fold-change of gene expression: Ccbp2,,0.4
same,Log2 fold-change of gene expression: Cldn5,,−0.1
same,Log2 fold-change of gene expression: DGKG,,2.9
same,Log2 fold-change of gene expression: DKK3,,−1.1
same,Log2 fold-change of gene expression: DLL4,,−2.2
same,Log2 fold-change of gene expression: DUT,,−0.4
same,Log2 fold-change of gene expression: EFNA1,,0.9
same,Log2 fold-change of gene expression: EFNA3,,0.1
same,Log2 fold-change of gene expression: EFNB2,,−2.2
same,Log2 fold-change of gene expression: EGF,,2.8
same,Log2 fold-change of gene expression: ENG,,−0.9
same,Log2 fold-change of gene expression: EPHB4,,−0.5
same,Log2 fold-change of gene expression: EREG,,5.0
same,Log2 fold-change of gene expression: ESAM1,,−1.1
same,Log2 fold-change of gene expression: EXTL3,,0.8
same,Log2 fold-change of gene expression: Egf17,,−1.2
same,Log2 fold-change of gene expression: Ehd4,,−1.4
same,Log2 fold-change of gene expression: Entpd1,,−5.5
same,Log2 fold-change of gene expression: Epas1,,−1.7
same,Log2 fold-change of gene expression: EphB1,,0.9
same,Log2 fold-change of gene expression: Erg,,3.7
same,Log2 fold-change of gene expression: FGF1,,−1.4
same,Log2 fold-change of gene expression: FGF2,,−0.6
same,Log2 fold-change of gene expression: FGFR3,,0.8
same,Log2 fold-change of gene expression: FIGF,,0.1
same,Log2 fold-change of gene expression: FLT1,,−0.2
same,Log2 fold-change of gene expression: Fgd5,,−0.8
same,Log2 fold-change of gene expression: GPCR124,,−1.9
same,Log2 fold-change of gene expression: GRRP1,,0.1
same,Log2 fold-change of gene expression: Grp116,,−4.4
same,Log2 fold-change of gene expression: HAND2,,1.0
same,Log2 fold-change of gene expression: HGF,,1.3
same,Log2 fold-change of gene expression: HIF1A,,−0.7
same,Log2 fold-change of gene expression: HPSE,,1.6
same,Log2 fold-change of gene expression: Hspa12b,,−2.2
same,Log2 fold-change of gene expression: ID1,,0.0
same,Log2 fold-change of gene expression: ID3,,−0.2
same,Log2 fold-change of gene expression: IFNA1,,0.8
same,Log2 fold-change of gene expression: IFNB1,,1.1
same,Log2 fold-change of gene expression: IFNG,,3.1
same,Log2 fold-change of gene expression: IGF1,,6.0
same,Log2 fold-change of gene expression: IL1B,,4.3
same,Log2 fold-change of gene expression: IL6,,3.0
same,Log2 fold-change of gene expression: IL8,,13.9
same,Log2 fold-change of gene expression: ITGAV,,1.2
same,Log2 fold-change of gene expression: ITGB3,,2.5
same,Log2 fold-change of gene expression: Icam1,,0.5
same,Log2 fold-change of gene expression: Icam2,,0.1
same,Log2 fold-change of gene expression: JAG1,,1.6
same,Log2 fold-change of gene expression: KDR,,−1.2
same,Log2 fold-change of gene expression: Kifc1,,0.5
same,Log2 fold-change of gene expression: LAMAS5,,−0.4
same,Log2 fold-change of gene expression: LECT1,,1.4
same,Log2 fold-change of gene expression: LEP,,−0.6
same,Log2 fold-change of gene expression: Lasts2,,0.1
same,Log2 fold-change of gene expression: Lrrk1,,−0.1
same,Log2 fold-change of gene expression: MDK,,0.8
same,Log2 fold-change of gene expression: MMP2,,2.8
same,Log2 fold-change of gene expression: MMP9,,3.3
same,Log2 fold-change of gene expression: MMP11,,0.1
same,Log2 fold-change of gene expression: MRC2,,0.6
same,Log2 fold-change of gene expression: Mmm2,,−1.0
same,Log2 fold-change of gene expression: Myo1b,,−1.5
same,Log2 fold-change of gene expression: NID1,,−2.5
same,Log2 fold-change of gene expression: NM023516,,0.4
same,Log2 fold-change of gene expression: NRP1,,0.8
same,Log2 fold-change of gene expression: NRP2,,1.0
same,Log2 fold-change of gene expression: Notch4,,−0.4
same,Log2 fold-change of gene expression: Npr3,,0.9
same,Log2 fold-change of gene expression: PALD,,1.8
same,Log2 fold-change of gene expression: PDCD2,,0.2
same,Log2 fold-change of gene expression: PDGFA,,1.6
same,Log2 fold-change of gene expression: PECAM1,,−0.7
same,Log2 fold-change of gene expression: PGF,,0.6
same,Log2 fold-change of gene expression: PLAU,,2.7
same,Log2 fold-change of gene expression: PLG,,−0.7
same,Log2 fold-change of gene expression: PNMT,,0.1
same,Log2 fold-change of gene expression: PROK2,,1.9
same,Log2 fold-change of gene expression: PTGS1,,2.0
same,Log2 fold-change of gene expression: PTPRCAP,,0.1
same,Log2 fold-change of gene expression: Pltp,,0.4
same,Log2 fold-change of gene expression: Ptprb,,0.3
same,Log2 fold-change of gene expression: Ptprm,,−0.1
same,Log2 fold-change of gene expression: RAMP2,,−0.6
same,Log2 fold-change of gene expression: RASD2,,0.3
same,Log2 fold-change of gene expression: Rasip1,,−0.3
same,Log2 fold-change of gene expression: S1PR1,,−0.3
same,Log2 fold-change of gene expression: SERPINF1,,2.3
same,Log2 fold-change of gene expression: SPHK1,,2.0
same,Log2 fold-change of gene expression: STAB1,,0.2
same,Log2 fold-change of gene expression: Sdc4,,0.7
same,Log2 fold-change of gene expression: Sdpr,,−4.9
same,Log2 fold-change of gene expression: Slc43a3,,1.0
same,Log2 fold-change of gene expression: Slco2a1,,−5.3
same,Log2 fold-change of gene expression: TEK,,2.0
same,Log2 fold-change of gene expression: TGFA,,−3.4
same,Log2 fold-change of gene expression: TGFB1,,1.1
same,Log2 fold-change of gene expression: TGFB2,,1.9
same,Log2 fold-change of gene expression: TGFBR1,,1.8
same,Log2 fold-change of gene expression: THBS1,,1.1
same,Log2 fold-change of gene expression: THBS2,,1.9
same,Log2 fold-change of gene expression: THY1,,−8.0
same,Log2 fold-change of gene expression: TIMP1,,1.6
same,Log2 fold-change of gene expression: TIMP2,,1.1
same,Log2 fold-change of gene expression: TIMP3,,−0.4
same,Log2 fold-change of gene expression: TNF,,1.0
same,Log2 fold-change of gene expression: TNS1,,−0.3
same,Log2 fold-change of gene expression: TNS3,,0.5
same,Log2 fold-change of gene expression: TRA2B,,−0.6
same,Log2 fold-change of gene expression: TYMP,,−0.1
same,Log2 fold-change of gene expression: VEGFA,,3.2
same,Log2 fold-change of gene expression: VEGFC,,2.7
same,Log2 fold-change of gene expression: VGLL4,,−0.8
same,Log2 fold-change of gene expression: Vwf,,−3.3
same,Log2 fold-change of gene expression: copa,,0.2
same,Log2 fold-change of gene expression: itbp4,,0.1
same,Log2 fold-change of gene expression: ralb,,−0.4
same,Log2 fold-change of gene expression: stard9,,0.8
same,Log2 fold-change of gene expression: B2M,1st listing (r49),−0.4
same,Log2 fold-change of gene expression: HPRT1,1st listing (r50),0.3
same,Log2 fold-change of gene expression: RPL13A,1st listing (r51),0.7
same,Log2 fold-change of gene expression: GADPH,1st listing (r52),−0.1
same,Log2 fold-change of gene expression: ACTB,1st listing (r53),−0.8
same,Log2 fold-change of gene expression: PLXDC1,1st listing (r74),−0.1
same,Log2 fold-change of gene expression: TNFAIP2,1st listing (r91),0.6
same,Log2 fold-change of gene expression: Robo4,1st listing (r95),1.1
same,Log2 fold-change of gene expression: 151516,1st listing (r134),0.7
same,Log2 fold-change of gene expression: TNFAIP2,2nd listing (r92),0.2
same,Log2 fold-change of gene expression: B2M,2nd listing (r97),1.3
same,Log2 fold-change of gene expression: HPRT1,2nd listing (r98),1.4
same,Log2 fold-change of gene expression: RPL13A,2nd listing (r99),1.7
same,Log2 fold-change of gene expression: GADPH,2nd listing (r100),1.4
same,Log2 fold-change of gene expression: ACTB,2nd listing (r101),−6.3
same,Log2 fold-change of gene expression: PLXDC1,2nd listing (r104),0.3
same,Log2 fold-change of gene expression: 151516,2nd listing (r139),0.7
same,Log2 fold-change of gene expression: Robo4,2nd listing (r188),0.0
same,Log2 fold-change of gene expression: B2M,3rd listing (r145),0.0
same,Log2 fold-change of gene expression: HPRT1,3rd listing (r146),0.2
same,Log2 fold-change of gene expression: RPL13A,3rd listing (r147),0.3
same,Log2 fold-change of gene expression: GADPH,3rd listing (r148),−0.1
same,Log2 fold-change of gene expression: ACTB,3rd listing (r149),−0.9
same,Log2 fold-change of gene expression: B2M,4th listing (r193),0.6
same,Log2 fold-change of gene expression: HPRT1,4th listing (r194),0.4
same,Log2 fold-change of gene expression: RPL13A,4th listing (r195),1.2
same,Log2 fold-change of gene expression: GADPH,4th listing (r196),−0.2
same,Log2 fold-change of gene expression: ACTB,4th listing (r197),−0.6
